Where two headings read alike, the source gives them in different places.
Tests used:
IRAK4 [1] = target: T1, IRAK4 (Homo sapiens (Human), UniProt Q9NWZ3); assay: IRAK4 Biochemical HTRF Kinase Assay; settings: read-out: IRAK4 HTRF biochemical: IC50
Outline: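 IC50 values derive from non-linear regression of sixteen concentrations in duplicate. Kinase reaction ran 90 min at ambient temperature after adding 5 μM STK-S1 substrate, 10 mM ATP and 10 mM MgCl2 (reaction-solution levels, pre-dilution to 10 μl); phospho-peptide detected by HTRF after 60 min.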
Target sequence in this assay (Q9NWZ3 whole entry, species assumed): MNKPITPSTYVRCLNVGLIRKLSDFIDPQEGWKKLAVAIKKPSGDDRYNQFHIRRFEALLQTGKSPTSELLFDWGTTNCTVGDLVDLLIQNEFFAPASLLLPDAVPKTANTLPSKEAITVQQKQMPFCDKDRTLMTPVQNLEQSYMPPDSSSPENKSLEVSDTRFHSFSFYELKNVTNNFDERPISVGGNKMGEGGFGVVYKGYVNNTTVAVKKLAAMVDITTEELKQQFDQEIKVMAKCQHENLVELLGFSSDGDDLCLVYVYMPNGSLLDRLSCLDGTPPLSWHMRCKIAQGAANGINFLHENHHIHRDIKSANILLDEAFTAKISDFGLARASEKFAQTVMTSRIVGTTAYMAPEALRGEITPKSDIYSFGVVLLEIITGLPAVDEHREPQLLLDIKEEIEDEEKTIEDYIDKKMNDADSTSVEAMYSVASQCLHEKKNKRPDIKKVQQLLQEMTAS

IRAK4 [2] = target: T1, IRAK4; assay: IRAK4 Degradation HiBiT Assay; settings: HiBiT-tagged Jurkat cells, 4 hrs; for Dmax: Jurkat; for DC50: read-out: Cellular IRAK4 HiBiT: DC50
Target sequence in this assay (Q9NWZ3 whole entry): as the sequence (Q9NWZ3 whole entry, species assumed) above

[3] = read-out: Cellular IRAK4 HiBiT: Dmax, Table 4
[4] = read-out: Cellular IRAK4 HiBiT: Dmax, Table 5, multiple runs

With `Cc1ncsc1-c1ccc([C@H](C)NC(=O)[C@@H]2C[C@@H](O)CN2C(=O)[C@@H](NC(=O)CCCCC(=O)N2CCN(c3nnc(-c4cnc(-c5ccc6cc(C#N)cnn56)cc4NC(C)C)s3)CC2)C(C)(C)C)cc1` [Example 39, (2S,4R)-1-((S)-2-(6-(4-(5-(6-(3-cyanopyrrolo[1,2-b]pyridazin-7-yl)-4-(isopropylamino)pyridin-3-yl)-1,3,4-thiadiazol-2-yl)piperazin-1-yl)-6-oxohexanamido)-3,3-dimethylbutanoyl)-4-hydroxy-N—((S)-1-(4-(4-methylthiazol-5-yl)phenyl)ethyl)pyrrolidine-2-carboxamide] the IC50 (IRAK4 [1]; Table 4) was 5 nM, the IC50 (IRAK4 [1]; Table 5, multiple runs) was 5 nM and the Dmax (IRAK4 [2]; [3]) was 97%. For the same molecule, the Dmax (IRAK4 [2]; [4]) was 97%, the DC50 (IRAK4 [2]; Table 4) was 357 nM and the DC50 (IRAK4 [2]; Table 5, multiple runs) was 357 nM.
For `CNc1cc(-c2ccc3cc(C#N)cnn23)ncc1-c1nnc([C@H]2CC[C@@H](NC(=O)CCOCCNc3cccc4c3C(=O)N(C3CCC(=O)NC3=O)C4=O)CC2)s1` (some centres unmarked) [Example 116, N-((1s,4s)-4-(5-(6-(3-cyanopyrrolo[1,2-b]pyridazin-7-yl)-4-(methylamino)pyridin-3-yl)-1,3,4-thiadiazol-2-yl)cyclohexyl)-3-(2-((2-(2,6-dioxopiperidin-3-yl)-1,3-dioxoisoindolin-4-yl)amino)ethoxy)propanamide], the IC50 (IRAK4 [1]; Table 5, multiple runs) was 2.2 nM, the Dmax (IRAK4 [2]; [4]) was 60% and the DC50 (IRAK4 [2]; Table 5, multiple runs) was 46.3 nM.
`CNc1cc(-c2ccc3cc(C#N)cnn23)ncc1-c1nnc([C@H]2CC[C@H](NC(=O)CN3CCC4(CC3)CN(c3ccc5c(c3)C(=O)N(C3CCC(=O)NC3=O)C5=O)C4)CC2)s1` (some centres unmarked) [Example 64, N-((1r,4r)-4-(5-(6-(3-cyanopyrrolo[1,2-b]pyridazin-7-yl)-4-(methylamino)pyridin-3-yl)-1,3,4-thiadiazol-2-yl)cyclohexyl)-2-(2-(2-(2,6-dioxopiperidin-3-yl)-1,3-dioxoisoindolin-5-yl)-2,7-diazaspiro[3.5]nonan-7-yl)acetamide] showed an IC50 (IRAK4 [1]; Table 4) of 0.89 nM, an IC50 (IRAK4 [1]; Table 5, multiple runs) of 0.8 nM and a Dmax (IRAK4 [2]; [3]) of 110%. The Dmax (IRAK4 [2]; [4]) was 112%, the DC50 (IRAK4 [2]; Table 4) was 17.3 nM and the DC50 (IRAK4 [2]; Table 5, multiple runs) was 14.9 nM.
In the case of `CNc1cc(-c2ccc3cc(C#N)cnn23)ncc1-c1nnc([C@H]2CC[C@H](NC(=O)CCOCCOc3cc(-c4scnc4C)ccc3CNC(=O)[C@@H]3C[C@@H](O)CN3C(=O)[C@@H](NC(=O)C3(F)CC3)C(C)(C)C)CC2)s1` [Example 58, (2S,4R)—N-(2-(2-(3-(((1r,4r)-4-(5-(6-(3-cyanopyrrolo[1,2-b]pyridazin-7-yl)-4-(methylamino)pyridin-3-yl)-1,3,4-thiadiazol-2-yl)cyclohexyl)amino)-3-oxopropoxy)ethoxy)-4-(4-methylthiazol-5-yl)benzyl)-1-((S)-2-(1-fluorocyclopropane-1-carboxamido)-3,3-dimethylbutanoyl)-4-hydroxypyrrolidine-2-carboxamide], the IC50 (IRAK4 [1]; Table 4) is reported as 5.26 nM, the IC50 (IRAK4 [1]; Table 5, multiple runs) is reported as 5.3 nM and the Dmax (IRAK4 [2]; [3]) is reported as 115%. It also gave a Dmax (IRAK4 [2]; [4]) of 118%, a DC50 (IRAK4 [2]; Table 4) of 72.8 nM and a DC50 (IRAK4 [2]; Table 5, multiple runs) of 73.7 nM.
For `CNc1cc(-c2ccc3cc(C#N)cnn23)ncc1-c1nnc([C@H]2CC[C@H](N(C)C(=O)C[C@H](NC(=O)[C@@H]3C[C@@H](O)CN3C(=O)[C@@H](NC(=O)C3(F)CC3)C(C)(C)C)c3ccc(-c4scnc4C)cc3)CC2)s1` [Example 163, (2S,4R)—N—((S)-3-(((1r,4S)-4-(5-(6-(3-cyanopyrrolo[1,2-b]pyridazin-7-yl)-4-(methylamino)pyridin-3-yl)-1,3,4-thiadiazol-2-yl)cyclohexyl)(methyl)amino)-1-(4-(4-methylthiazol-5-yl)phenyl)-3-oxopropyl)-1-((S)-2-(1-fluorocyclopropane-1-carboxamido)-3,3-dimethylbutanoyl)-4-hydroxypyrrolidine-2-carboxamide], the IC50 (IRAK4 [1]; Table 5, multiple runs) was 1 nM, the Dmax (IRAK4 [2]; [4]) was 113% and the DC50 (IRAK4 [2]; Table 5, multiple runs) was 65.9 nM.
Work on `CNc1cc(-c2ccc3cc(C#N)cnn23)ncc1-c1nnc(C23CCC(NC(=O)C4CN(C5CCN(c6ccc7c(c6)C(=O)N(C6CCC(=O)NC6=O)C7=O)CC5)C4)(CC2)CC3)s1` (centres unmarked) [Example 103, N-(4-(5-(6-(3-cyanopyrrolo[1,2-b]pyridazin-7-yl)-4-(methylamino)pyridin-3-yl)-1,3,4-thiadiazol-2-yl)bicyclo[2.2.2]octan-1-yl)-1-(1-(2-(2,6-dioxopiperidin-3-yl)-1,3-dioxoisoindolin-5-yl)piperidin-4-yl)azetidine-3-carboxamide] yielded an IC50 (IRAK4 [1]; Table 5, multiple runs) of 1 nM, a Dmax (IRAK4 [2]; [4]) of 99% and a DC50 (IRAK4 [2]; Table 5, multiple runs) of 73.3 nM.
Molecule `CNc1cc(-c2ccc3cc(C#N)cnn23)ncc1-c1nnc(C23CCC(NC(=O)CCOCCNc4cccc5c4C(=O)N(C4CCC(=O)NC4=O)C5=O)(CC2)CC3)s1` (centres unmarked) [Example 111, N-(4-(5-(6-(3-cyanopyrrolo[1,2-b]pyridazin-7-yl)-4-(methylamino)pyridin-3-yl)-1,3,4-thiadiazol-2-yl)bicyclo[2.2.2]octan-1-yl)-3-(2-((2-(2,6-dioxopiperidin-3-yl)-1,3-dioxoisoindolin-4-yl)amino)ethoxy)propenamide] has an IC50 (IRAK4 [1]; Table 5, multiple runs) of 1.1 nM, a Dmax (IRAK4 [2]; [4]) of 59% and a DC50 (IRAK4 [2]; Table 5, multiple runs) of 15.8 nM.
`CC(C)Nc1cc(-c2ccc3cc(C#N)cnn23)ncc1-c1nnc(N2CCN(CC3CCN(Cc4ccc5c(c4)C(=O)N(C4CCC(=O)NC4=O)C5=O)CC3)CC2)s1` (centres unmarked) [Example 85, 7-(5-(5-(4-((1-((2-(2,6-dioxopiperidin-3-yl)-1,3-dioxoisoindolin-5-yl)methyl)piperidin-4-yl)methyl)piperazin-1-yl)-1,3,4-thiadiazol-2-yl)-4-(isopropylamino)pyridin-2-yl)pyrrolo[1,2-b]pyridazine-3-carbonitrile] gave an IC50 (IRAK4 [1]; Table 5, multiple runs) of 2.1 nM and a DC50 (IRAK4 [2]; Table 5, multiple runs) of over 970 nM.
Work on `CC(C)Nc1cc(-c2ccc3cc(C#N)cnn23)ncc1-c1nnc(N2CCC3(CCN(Cc4ccc5c(c4)C(=O)N(C4CCC(=O)NC4=O)C5=O)CC3)CC2)s1` (centres unmarked) [Example 81, 7-(5-(5-(9-((2-(2,6-dioxopiperidin-3-yl)-1,3-dioxoisoindolin-5-yl)methyl)-3,9-diazaspiro[5.5]undecan-3-yl)-1,3,4-thiadiazol-2-yl)-4-(isopropylamino)pyridin-2-yl)pyrrolo[1,2-b]pyridazine-3-carbonitrile] yielded an IC50 (IRAK4 [1]; Table 5, multiple runs) of 1.8 nM, a Dmax (IRAK4 [2]; [4]) of 81% and a DC50 (IRAK4 [2]; Table 5, multiple runs) of 64.9 nM.
In the case of `CC(C)Nc1cc(-c2ccc3cc(C#N)cnn23)ncc1-c1nnc(N2CCC(NCC3CCN(c4ccc5c(c4)C(=O)N(C4CCC(=O)NC4=O)C5=O)CC3)CC2)s1` (centres unmarked) [Example 22, 7-[5-(5-{4-[({1-[2-(2,6-dioxopiperidin-3-yl)-1,3-dioxo-2,3-dihydro-1H-isoindol-5-yl]piperidin-4-yl}methyl)amino]piperidin-1-yl}-1,3,4-thiadiazol-2-yl)-4-[(propan-2-yl)amino]pyridin-2-yl]pyrrolo[1,2-b]pyridazine-3-carbonitrile], the IC50 (IRAK4 [1]; Table 4) is reported as 0.8 nM, the IC50 (IRAK4 [1]; Table 5, multiple runs) is reported as 0.8 nM and the Dmax (IRAK4 [2]; [3]) is reported as 96%. It also gave a Dmax (IRAK4 [2]; [4]) of 99%, a DC50 (IRAK4 [2]; Table 4) of 232 nM and a DC50 (IRAK4 [2]; Table 5, multiple runs) of 231 nM.
Work on `CNc1cc(-c2ccc3cc(C#N)cnn23)ncc1-c1nnc(N2CC3CCC(C2)N3C(=O)C[C@H](NC(=O)[C@@H]2C[C@@H](O)CN2C(=O)[C@@H](NC(=O)C2(F)CC2)C(C)(C)C)c2ccc(-c3scnc3C)cc2)s1` [Example 180, (2S,4R)—N-((1S)-3-(3-(5-(6-(3-cyanopyrrolo[1,2-b]pyridazin-7-yl)-4-(methylamino)pyridin-3-yl)-1,3,4-thiadiazol-2-yl)-3,8-diazabicyclo[3.2.1]octan-8-yl)-1-(4-(4-methylthiazol-5-yl)phenyl)-3-oxopropyl)-1-((S)-2-(1-fluorocyclopropane-1-carboxamido)-3,3-dimethylbutanoyl)-4-hydroxypyrrolidine-2-carboxamide] yielded an IC50 (IRAK4 [1]; Table 5, multiple runs) of 0.5 nM, a Dmax (IRAK4 [2]; [4]) of 110% and a DC50 (IRAK4 [2]; Table 5, multiple runs) of 91.6 nM.

— patent US12528814B2, “Bifunctional degraders of interleukin-1 receptor-associated kinases and therapeutic use thereof” (NURIX THERAPEUTICS, INC., priority 2020, dated 2026)
